Measurements published in US20260297060A1, “COMPOUNDS FOR THE DEGRADATION OF MUTANT BRAF” (C4 THERAPEUTICS, INC., priority 2023, published 2026).
Where two headings read alike, the source gives them in different places.

Key:
[1] = Pharmacokinetics in female BALB/c nude mice bearing A375 xenografts, 1 day dosing (PK and PD study): plasma, tumor and brain concentrations, AUC; format: in vivo; conditions: mouse, po
From the text: The concentrations of Dabrafenib, Compound 26 and Compound 141 in the treatment of female BALB/c nude mice bearing A375 xenografts are shown in Table 62-Table 72 and FIG. 52-FIG. 73.

BRAF V600E = test: Pharmacodynamics of BRAF protein degradation in inoculated CNS tumors (Example 12); format: in vivo, human A375 CNS xenograft in mice; conditions: CNS tumor-bearing mice, after administration, versus encorafenib, FIG. 51
Procedure: FIG. 51 is a plot showing the pharmacodynamics of BRAF protein degradation in the inoculated CNS tumors. […] The experiment was conducted as described in Example 12.

A375 = A375 cell viability assay (Example 15); format: cell-based, human
Procedure: FIG. 83 is a line graph showing the results of Compound 26, Compound 26-NMe, Compound 141, and Compound 141-NMe in an A375 viability assay. The y-axis is viability in % and the x-axis is concentration (nM). The experiment was conducted as described in Example 15.
This robust degradation activity is surprising in view of the minimal inhibition-based activity of selected compounds. […] However, the degradation deficient versions of Compound 26 and Compound 141 (N-methyl analogs) had minimal effect on cell viability at a concentration of 100 nM (see FIG. 83 and Example 15).

[2] = plasma, 1.5 mg/kg, Compound 141, 1.5 mg/kg p.o. BID × 1 day, post 1st dose, read-out: Mean Concentration in Plasma ± SEM
[3] = plasma, 1.5 mg/kg, Compound 141, 1.5 mg/kg p.o. BID × 1 day, post 2nd dose, read-out: Mean Concentration in Plasma ± SEM
[4] = plasma, 3 mg/kg, 3 mg/kg p.o. QD × 1 day, read-out: Mean Concentration in Plasma ± SEM
[5] = plasma, 5 mg/kg, 5 mg/kg p.o. BID × 1 day, post 1st dose, read-out: Mean Concentration in Plasma ± SEM
[6] = plasma, 5 mg/kg, 5 mg/kg p.o. BID × 1 day, post 2nd dose, read-out: Mean Concentration in Plasma ± SEM
[7] = tumor, 0.75 mg/kg, 0.75 mg/kg p.o. BID × 1 day, post 2nd dose, read-out: Mean Concentration in Tumor ± SEM
[8] = tumor, 1 mg/kg, 1 mg/kg p.o. TID × 1 day, post 3rd dose, read-out: Mean Concentration in Tumor ± SEM
[9] = tumor, 1.5 mg/kg, Compound 141, 1.5 mg/kg p.o. BID × 1 day, post 2nd dose, read-out: Mean Concentration in Tumor ± SEM
[10] = tumor, 3 mg/kg, 3 mg/kg p.o. QD × 1 day, read-out: Mean Concentration in Tumor ± SEM
[11] = tumor, 5 mg/kg, 5 mg/kg p.o. BID × 1 day, post 2nd dose, read-out: Mean Concentration in Tumor ± SEM

`CCN(C)S(=O)(=O)Nc1ccc(F)c(Oc2ccc3ncn(C4CC5(CCN(C6CC7(C6)CN(c6cc8c(cc6F)c(N6CCC(=O)NC6=O)nn8C)C7)CC5)C4)c(=O)c3c2)c1C#N` (stereo not drawn) [Compound 141, 6-[2-cyano-3-[[ethyl(methyl)sulfamoyl]amino]-6-fluoro-phenoxy]-3-[7-[2-[3-(2,4-dioxohexahydropyrimidin-1-yl)-5-fluoro-1-methyl-indazol-6-yl]-2-azaspiro[3.3]heptan-6-yl]-7-azaspiro[3.5]nonan-2-yl]-4-oxo-quinazoline] gave a concentration at 0.5 h [1, 2] of 1150 ± 94 ng/mL, a concentration at 1 h [1, 2] of 2030 ± 255 ng/mL and a concentration at 2 h [1, 2] of 1610 ± 128 ng/mL. For the same compound, the concentration at 4 h [1, 2] was 796 ± 312 ng/mL, the concentration at 8 h [1, 2] was 256 ± 19.3 ng/mL and the concentration at 12 h [1, 2] was 43.4 ± 4.65 ng/mL. It also gave a concentration at 0.25 h [1, 3] of 359 ± 30.7 ng/mL, a concentration at 0.5 h [1, 3] of 830 ± 129 ng/mL and a concentration at 1 h [1, 3] of 1560 ± 99.1 ng/mL. The concentration at 2 h [1, 3] was 1550 ± 181 ng/mL, the concentration at 4 h [1, 3] was 831 ± 96.6 ng/mL and the concentration at 10 h [1, 3] was 115 ± 34.3 ng/mL. The concentration at 24 h [1, 3] was 1.2 ± 0.262 ng/mL, the concentration at 0.25 h [1, 4] was 1070 ± 209 ng/mL and the concentration at 0.5 h [1, 4] was 2020 ± 160 ng/mL. For the same compound, the concentration at 1 h [1, 4] was 2830 ± 372 ng/mL, the concentration at 2 h [1, 4] was 3660 ± 315 ng/mL and the concentration at 4 h [1, 4] was 1440 ± 285 ng/mL. The concentration at 8 h [1, 4] was 661 ± 279 ng/mL, the concentration at 10 h [1, 4] was 307 ± 60.4 ng/mL and the concentration at 24 h [1, 4] was 3.86 ± 2.5 ng/mL. The concentration at 36 h [1, 4] was 1.05 ng/mL, the concentration at 0.25 h [1, 5] was 1810 ± 126 ng/mL and the concentration at 0.5 h [1, 5] was 3460 ± 404 ng/mL. The concentration at 1 h [1, 5] was 4860 ± 155 ng/mL, the concentration at 2 h [1, 5] was 3650 ± 760 ng/mL and the concentration at 4 h [1, 5] was 1220 ± 55.5 ng/mL. It also gave a concentration at 8 h [1, 5] of 648 ± 142 ng/mL, a concentration at 12 h [1, 5] of 43.6 ± 2.7 ng/mL and a concentration at 0.25 h [1, 6] of 1680 ± 89.6 ng/mL. It also gave a concentration at 0.5 h [1, 6] of 3160 ± 596 ng/mL, a concentration at 1 h [1, 6] of 4850 ± 488 ng/mL and a concentration at 2 h [1, 6] of 3620 ± 428 ng/mL. The concentration at 4 h [1, 6] was 1750 ± 468 ng/mL, the concentration at 10 h [1, 6] was 484 ± 109 ng/mL and the concentration at 24 h [1, 6] was 4.28 ± 1.89 ng/mL. The concentration at 36 h [1, 6] was 2.06 ± 1.17 ng/mL, the concentration at 48 h [1, 6] was 0.635 ng/mL and the concentration at 1 h [1, 7] was 117 ± 11 ng/g. For the same compound, the concentration at 4 h [1, 7] was 143 ± 37.7 ng/g, the concentration at 10 h [1, 7] was 93 ± 22.1 ng/g and the concentration at 24 h [1, 7] was 3.27 ng/g. For the same compound, the concentration at 1 h [1, 8] was 152 ± 35.7 ng/g, the concentration at 4 h [1, 8] was 254 ± 43.2 ng/g and the concentration at 10 h [1, 8] was 205 ± 40.9 ng/g. The concentration at 24 h [1, 8] was 16.7 ± 12.2 ng/g, the concentration at 48 h [1, 8] was 8.07 ng/g and the concentration at 0.25 h [1, 9] was 58.9 ± 26.7 ng/g. It also gave a concentration at 0.5 h [1, 9] of 61.5 ± 14 ng/g, a concentration at 1 h [1, 9] of 239 ± 17.6 ng/g and a concentration at 2 h [1, 9] of 382 ± 43.9 ng/g. The concentration at 4 h [1, 9] was 214 ± 27.1 ng/g, the concentration at 10 h [1, 9] was 54.7 ± 17.9 ng/g and the concentration at 24 h [1, 9] was 22.5 ± 18.5 ng/g. For the same compound, the concentration at 36 h [1, 9] was 38.5 ng/g, the concentration at 48 h [1, 9] was 11.1 ng/g and the concentration at 1 h [1, 10] was 254 ± 26.3 ng/g. It also gave a concentration at 4 h [1, 10] of 439 ± 90.9 ng/g, a concentration at 10 h [1, 10] of 130 ± 19 ng/g and a concentration at 24 h [1, 10] of 12.9 ± 7.75 ng/g. The concentration at 48 h [1, 10] was 7.64 ng/g, the concentration at 1 h [1, 11] was 626 ± 78.6 ng/g and the concentration at 4 h [1, 11] was 636 ± 83.4 ng/g. It also gave a concentration at 10 h [1, 11] of 205 ± 47.2 ng/g, a concentration at 24 h [1, 11] of 6.26 ± 1.12 ng/g and a concentration at 48 h [1, 11] of 10.6 ng/g. For the same compound, the “BRAF V600E levels in the brain tumor compared with encorafenib” value (BRAF V600E) was “much lower”, the “cytotoxicity (in words)” value (A375; A375 cells) was “potent cytotoxic agents” and the “effect on cancer cell viability” value (A375; human, a375 cells, 0.1 µM) was no less than 30%.
